These are literature values, as cited in patent US6329349A, “Methods for reducing ischemic injury of the heart via the sequential administration of monophosphoryl lipid A and adenosine receptor agents” (priority 2000, dated 2001).

Read-outs that look alike come from different tables or passages of the source.

The target in one data set is A2. Conditions: table of Compound 8; cited from earlier work.
The next data set deals with A3 adenosine receptor. Conditions: cited from earlier work.
The next data set concerns the target A2a adenosine receptor. Conditions: Table II; cited from earlier work.
The target in another data set is A1 adenosine receptor. Conditions: Table II; cited from earlier work.

Usually Ki stands for the dissociation constant of the complex between target and ligand, obtained from inhibition or displacement. As to `NCCNC(=O)Cc1ccc(NC(=O)Cc2ccc(Nc3ncnc4c3ncn4[C@@H]3O[C@H](CO)[C@@H](O)[C@H]3O)cc2)cc1` [Compound 8], the Ki at A2 is 210 nM; on A3 adenosine receptor (table of Compound 8) it was 4 nM.

Regarding `CCNC(=O)[C@H]1O[C@@H](n2cnc3c(NC4CCCCC4)ncnc32)[C@H](O)[C@@H]1O` [N^6 -cyclohexyl NECA, N6-cyclohexyl 5'-N-ethylcarboxamidoadenosine], the Ki at A2a adenosine receptor is 170 nM; at A1 adenosine receptor, 0.43 nM; at A3 adenosine receptor (Table II), 16 nM.
